The text below walks through data of patent US9006191B2, “Silencing of polo-like kinase expression using interfering RNA” (Protiva Biotherapeutics, Inc., priority 2007, dated 2015).

“Also recorded” adds a separate entry of the source.

In one data set the test system is HT29 cells. The data set can be described thus: HT29 cell viability assay (CellTiter-Blue). The data set is classed as cell-based, human. The conditions noted are these: for anti-proliferative activity in screen of PLK-1 siRNA panel: HT29 cells, 1, 5, 25 nM, 72 h; for cell viability / killing of human tumor cells: HT29 cells, SNALP-formulated siRNA at a range of siRNA concentrations, viability at 72 h relative to PBS. As for the experimental part:
(§1) Various PLK-1 siRNAs were formulated as SNALP (“2:40” SNALP formulation: 2% PEG-cDMA; 40% DLinDMA; 10% DSPC; and 48% cholesterol) and evaluated for their inhibitory effects on cell growth in vitro. HT29 (human colon adenocarcinoma) or Neuro2A (mouse neuroblastoma) cells were treated with various PLK-1 SNALP at a range of siRNA concentrations and their effect on cell viability was evaluated. Viability of cell cultures is expressed as % viability relative to PBS treated controls.
Additional PLK-1 siRNA molecules were formulated as SNALP (“2:40” SNALP formulation: 2% PEG-cDMA; 40% DLinDMA; 10% DSPC; and 48% cholesterol) and evaluated for their inhibitory effects on cell growth in vitro. HT29 or Neuro2A cells were plated in triplicate at 5000 cells/well and 2500 cells/well, respectively. PLK-1 SNALP dosages were as follows: 25 nM; 5 nM; and 1 nM. Cell viability analysis was performed at 72 hours following transfection. SNALP containing a non-targeting (GFP) siRNA were used as a negative control. […]
PLK-1 siRNA molecules containing 2′-O-methyl (2′OMe) nucleotides at selective positions within the double-stranded region of the siRNA duplex were formulated as SNALP (“2:40” SNALP formulation: 2% PEG-cDMA; 40% DLinDMA; 10% DSPC; and 48% cholesterol) and evaluated for their inhibitory effects on cell growth in vitro. HT29 cells were plated in triplicate at 5000 cells/well. Cell viability analysis was performed at 72 hours following transfection with a range of PLK-1 SNALP dosages. SNALP containing a non-targeting (GFP) siRNA were used as a negative control.
Cell viability assays. […] Cell viability analysis was performed at 72 hours following transfection with a range of PLK-1 SNALP dosages.

The test system of the next data set is Neuro2A cells. The data set can be described thus: Neuro2A cell viability assay (CellTiter-Blue). The data set is classed as cell-based. To be noted: mouse Neuro2A cells, SNALP-formulated siRNA, viability at 72 h relative to PBS. The procedure:
as §1
Additional PLK-1 siRNA molecules were formulated as SNALP (“2:40” SNALP formulation: 2% PEG-cDMA; 40% DLinDMA; 10% DSPC; and 48% cholesterol) and evaluated for their inhibitory effects on cell growth in vitro. HT29 or Neuro2A cells were plated in triplicate at 5000 cells/well and 2500 cells/well, respectively. PLK-1 SNALP dosages were as follows: 25 nM; 5 nM; and 1 nM. Cell viability analysis was performed at 72 hours following transfection. SNALP containing a non-targeting (GFP) siRNA were used as a negative control.
Additional PLK-1 siRNA molecules were formulated as SNALP (“2:40” SNALP formulation: 2% PEG-cDMA; 40% DLinDMA; 10% DSPC; and 48% cholesterol) and evaluated for their inhibitory effects on cell growth in vitro. HT29 or Neuro2A cells were plated in triplicate at 5000 cells/well and 2500 cells/well, respectively. PLK-1 SNALP dosages were as follows: 30 nM; 10 nM; and 3.3 nM. Cell viability analysis was performed at 72 hours following transfection. SNALP containing a non-targeting (GFP) siRNA were used as a negative control.

The test system of another data set is Hep3B liver tumors. In words: Intrahepatic Hep3B tumor model (survival, body weight, tumor burden). In kind it is in vivo. The procedure: SNALP containing PLK-1 siRNA (“1:57” SNALP formulation: 1.4% PEG-cDMA; 57.1% DLinDMA; 7.1% DPPC; and 34.3% cholesterol) were tested for their effects on the survival of […] mice bearing Hep3B liver tumors.
Intrahepatic tumor models. Liver tumors were established in mice by direct intrahepatic injection of Hep3B or Neuro2a tumor cells (45). Female scid/beige mice (Charles River Laboratories) and male A/J mice (Jackson Laboratories) were used as hosts for the Hep3B and Neuro2a tumors, respectively. Animals received Anafen by SC injection immediately prior to surgery. Individual mice were anaesthetized by isoflourane gas inhalation and eye lube applied to prevent excessive eye drying. While maintained under gas anaesthesia, a single 1.5 cm incision across the midline was made below the sternum and the left lateral hepatic lobe exteriorized. 1×10^6 Hep3B cells or 1×10^5 Neuro2a cells suspended in 25 μL PBS were injected slowly into the lobe at a shallow angle using a Hamilton syringe and 30G needle. A swab was then applied to the puncture wound to stop any bleeding prior to suturing. Mice were allowed to recover from anaesthesia in a sterile cage and monitored closely for 2-4 h before being returned to conventional housing.
Eight to 11 days after tumor implantation, mice were randomized into treatment groups. siRNA SNALP formulations or PBS vehicle control were administered by standard intravenous injection via the lateral tail vein, calculated on a mg siRNA/kg basis according to individual animal weights (10 mL/kg injection volume). Body weights were then monitored throughout the duration of the study as an indicator of developing tumor burden and treatment tolerability. For efficacy studies, defined humane endpoints were determined as a surrogate for survival. Assessments were made by qualified veterinary technicians based on a combination of clinical signs, weight loss, and abdominal distension to define the day of euthanization due to tumor burden.
Measurement of human PLK-1 and GAPDH mRNA in tumor tissues. Tumors were harvested directly into RNALater and stored at 4° C. until processing. 100 mg tumor tissue was homogenized in Tissue and Lysis Solution (EpiCentre Biotechnologies) containing […] proteinase K (EpiCentre) in a Fastprep tissue homogenizer followed by incubation in a 65° C. waterbath for 15 min and centrifuged to clarify lysates. mRNA analysis in FIG. 33B was performed on purified RNA isolated according the 5′-RACE-PCR protocol. Human PLK-1 and GAPDH mRNA were measured in tumor lystes by the QuantiGene bDNA assay (Panomics) as per the manufacturer's instructions (Quantigene 1.0 Manual). […] Data were expressed as mean PLK-1:GAPDH ratio+/−SD of individual animals. Tumor burden was assessed by homogenizing the complete liver from tumor bearing mice and measuring the total hGAPDH signal (RLU's) within the liver. Values were expressed as hGAPDH RLU/mg total liver.

Another data set concerns IFIT1 mRNA, serum IFNα. The conditions noted are these: mouse, in vivo, iv.
Where [1] appears, read: Hep3B-nu/nu mouse model, 2 mg/kg twice weekly d11-d28.

Protocol for IFIT1 mRNA, serum IFNα: Balb/c mice (n=4 per group) were administered 2.5 mg/kg siRNA or lipid vehicle; serum IFNα (pg/mL) and IFIT1 mRNA (relative to GAPDH) from whole liver lysates were assessed after 4, 8, and 16 h by ELISA and bDNA assay, respectively. […] (b) Serum IFNα and (c) liver IFIT1 mRNA were assessed 4 h after administration (mean+SD, n=4).
SNALP-formulated Luc (unmodified) and the 2′OMe-modified Luc-U/U, PLK1424-2/A, PLK773-1/B, or KSP2263-U/U siRNA were administered at 2 mg/kg i.v. to Balb/C mice. (A) IFIT1 relative to GAPDH mRNA in liver and spleen was assessed at 4 h by bDNA analysis. […] Serum IFNα was assessed at 6 h by ELISA. […] Values represent mean+SD (n=4).
IFIT1 mRNA and serum cytokines were assessed 4-6 h after SNALP administration based on the approximate time of peak response for these markers. In these studies, SNALP-formulated native Luc siRNA (Table 6) was used as a positive control for immune stimulation.
In vivo immune stimulation assays. […] 6-8 week old Balb/C mice were obtained from Harlan and subject to a two week acclimation period prior to use. Mice were administered SNALP formulated siRNA (2 mg/kg) in PBS via standard intravenous injection in the lateral tail vein. Blood was collected by cardiac puncture and processed as plasma for cytokine analysis. Liver and spleen were collected into RNALater (Sigma Co.) for IFIT1 mRNA analysis.
Measurement of IFIT1 mRNA in mouse tissues. Murine liver and spleen were processed for bDNA assay to quantitate IFIT1 mRNA as described above. The IFIT1 probe set was specific to mouse IFIT1 mRNA (positions 4-499 of NM—008331) and the GAPDH probe set was specific to mouse GAPDH mRNA (positions 9-319 of NM—008084). Data is shown as the ratio of IFIT1 relative light units (RLU) to GAPDH RLU.
Cytokine ELISA. All cytokines were quantified using sandwich ELISA kits. These were mouse interferon-α (PBL Biomedical; Piscataway, N.J.) and human and mouse IL-6 (BD Biosciences; San Diego, Calif.).

As for “PLK773: siRNA to human PLK-1, SEQ ID NO:3/4 (UU overhang form 218/219) (chain 1 AGACCUACCUCCGGAUCAA; chain 2 UUGAUCCGGAGGUAGGUCU; RNA, backbone not given here)”, in the data set on HT29 cells, the “anti-proliferative activity in screen of PLK-1 siRNA panel” value is “most potent mouse, rat, and human cross-reactive siRNA”; the “cell viability / killing of human tumor cells” value is “effective at killing human tumor cells; also recorded: inhibiting cell growth; also recorded: dose-dependent decrease in cell viability”. Further, in the data set on Neuro2A cells, the “cell viability / inhibition of cell growth” value is “most potent human/mouse cross-reactive siRNA molecules”.
As to “PLK1424-2/A: 2′OMe-modified PLK1424 duplex, SEQ ID NO:214/215 (same SEQ IDs as PLK1424 1/3 of Table 11) (chain 1 AGANCACCCNCCUNAAANAUU; chain 2 UAUUUAANGAGGGUGANCUUU; siRNA; 2'-O-methyl modifications at selected positions, key for n not given here)”, the “mice with visible tumors at autopsy” value in the data set with Hep3B liver tumors (day 22, 1 day after fifth 2 mg/kg dose) is given as 2 of 6. Moreover, the “survival advantage (Kaplan-Meier, Log-rank)” value with Hep3B liver tumors (scid/beige mice, 6 × 2 mg/kg IV twice weekly, d 10 to d 28) was “significant survival advantage over control treatment”. Further, in the data set with IFIT1 mRNA, serum IFNα, the “serum IFNα / serum cytokine response” value is recorded as “no measurable IFNα”.
With “PLK1424: siRNA to human PLK-1, SEQ ID NO:1/2 (UU overhang form 211/212) (chain 1 AGAUCACCCUCCUUAAAUA; chain 2 UAUUUAAGGAGGGUGAUCU; further chemistry not given here)”, in the data set with HT29 cells, the “anti-proliferative activity in screen of PLK-1 siRNA panel” value is “most potent human siRNA” and the “cell viability / killing of human tumor cells” value was “highly potent at killing human tumor cells; also recorded: most potent effects; also recorded: inhibiting cell growth; also recorded: dose-dependent decrease in cell viability”. Moreover, the “cell viability / inhibition of cell growth” value in the data set with Neuro2A cells was “inactivity in the mouse cell line”. Further, in the data set on Hep3B liver tumors (setting [1]), the “median survival, Study (A)” value was 45 days and the “median survival, study (B)” value was 42 days.
